# Test results reported in publication PMC4499186, “Structure of the stationary phase survival protein YuiC from B.subtilis” (BMC Structural Biology, 2015).
# Target: T1, YuiC (degraded K32-E218) (Bacillus subtilis, UniProt O32108)
# T1 construct: mature protein K32-E218, signal peptide removed, E. coli Rosetta 2 (DE3), His-tag cut by TEV leaving GIDPFT; partially proteolysed at or close to R52; residues 72-217 modelled; domain-swapped dimer, site formed by both chains
# T1 sequence (O32108 32-218): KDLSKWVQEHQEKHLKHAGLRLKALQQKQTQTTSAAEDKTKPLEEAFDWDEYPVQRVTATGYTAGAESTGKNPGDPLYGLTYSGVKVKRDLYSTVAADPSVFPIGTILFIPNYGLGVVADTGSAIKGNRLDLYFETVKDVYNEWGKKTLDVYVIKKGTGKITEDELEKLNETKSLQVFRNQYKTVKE
# Experiment: X-ray crystal structure, […] Å
# Assay type: binding
# Settings: 5 mM NAG in crystallisation, pH 6.0; bound at -2 site, one per chain
compound,measurement,value
"CC(=O)N[C@H]1C(O)O[C@H](CO)[C@@H](O)[C@@H]1O (stereo partly shown) [NAG, N-acetylglucosamine]","X-ray crystal structure, 1.21 Å",Crystallisation of YuiC in the presence of NAG gives a structure with a single
